These results are taken from paper PMC11678425, “(-)-Syringaresinol Exerts an Antidepressant-like Activity in Mice by Noncompetitive Inhibition of the Serotonin Transporter” (Pharmaceuticals, 2024).

Assay [1] addresses T1, hSERT L563A (Homo sapiens, UniProt P31645, L563A).
T1 construct: forward and reverse primers were used to amplify a full-length hSERT; expressed in transfected cells; host or cells: HeLa
The experiment in a line: ASP^+ binding, hSERT L563A. To be noted: S2 site mutant, read-out: SYR IC50 for Binding.

Assay [2] has as its system c-Fos. The experiment in a line: c-Fos immunohistochemistry in mPFC of CUMS mice. In kind it is in vivo, mouse. As to conditions: 10 mg/kg i.p. As for the experimental part:
Figure 7 SYR effects on the expression of c-Fos and synaptic proteins in mPFC. (A) Representative immunohistochemical images of c-Fos expression in mPFC under the indicated treatments. Immunohistochemistry of c-Fos was performed with mPFC slices as described in Section 4. The slices were re-probed with anti-DAPI antibody. Immunofluorescence images for c-Fos (green) and DAPI (blue) were acquired by confocal microscopy. (B) Quantitative analysis for c-Fos expression in mPFC with various treatments. Protein expression is expressed as a percentage of c-Fos fluorescence measured in the control group. Bars represent the mean ± SEM (n = 4). * p < 0.05, ** p < 0.01 compared with the control or CUMS group by one-way ANOVA followed by post hoc tests, respectively. (C) Representative immunoblots of the synaptic proteins BDNF, PSD-95, GluA1, and vGluT1 with various treatments. (D–G) Quantification of the expression of the synaptic proteins BDNF (D), PSD-95 (E), GluA1 (F), and vGluT1 (G). The expression level is expressed as a percentage of the integrated density obtained from the control group. Bars represent the mean ± SEM (n = 4). * p < 0.05, ** p < 0.01 by one-way ANOVA followed by post hoc tests.
Mouse mPFC and hippocampal slices were prepared as previously described. […]

Assay [3] deals with T2, hSERT E493N (Homo sapiens, UniProt P31645, E493N).
T2 construct: forward and reverse primers were used to amplify a full-length hSERT; expressed in transfected cells; host or cells: HeLa cells, transient, pcDNA3.1
The experiment in a line: APP^+ uptake, hSERT E493N. It is filed as cell-based. As to conditions: S2 site mutant, read-out: SYR IC50 for Transport.

In assay [4] the target is T3, hSERT G498T (Homo sapiens, UniProt P31645, G498T).
T3 construct: forward and reverse primers were used to amplify a full-length hSERT; expressed in transfected cells; host or cells: HeLa cells, transient, pcDNA3.1
The experiment in a line: ASP^+ binding, hSERT G498T. To be noted: S2 site mutant, read-out: SYR IC50 for Binding.

Assay [5] addresses T4, hSERT S438T (Homo sapiens, UniProt P31645, S438T).
T4 construct: forward and reverse primers were used to amplify a full-length hSERT; expressed in transfected cells; host or cells: HeLa
Put plainly: ASP^+ binding, hSERT S438T. As to conditions: S1 site mutant, read-out: SYR IC50 for Binding.

The target in assay [6] is T5, hSERT E494Q (Homo sapiens, UniProt P31645, E494Q).
T5 construct: forward and reverse primers were used to amplify a full-length hSERT; expressed in transfected cells; host or cells: HeLa cells, transient, pcDNA3.1
The experiment in a line: ASP^+ binding, hSERT E494Q. As to conditions: S2 site mutant, read-out: SYR IC50 for Binding.

The target in assay [7] is T6, hSERT S559A (Homo sapiens, UniProt P31645, S559A).
T6 construct: forward and reverse primers were used to amplify a full-length hSERT; expressed in transfected cells; host or cells: HeLa cells, transient, pcDNA3.1
Put plainly: ASP^+ binding, hSERT S559A. To be noted: S2 site mutant, read-out: SYR IC50 for Binding.

In assay [8] the target is T4, hSERT S438T. Put plainly: APP^+ uptake, hSERT S438T. In kind it is cell-based. As to conditions: S1 site mutant, read-out: SYR IC50 for Transport. The procedure:
HeLa cells were cultured in Dulbecco’s Modified Eagle’s Medium supplemented with 10% fetal bovine serum, 100 units/mL penicillin, and 100 μg/mL streptomycin at 37 °C in a humidified 5% CO2 incubator. Cells grown at ~70% confluence in a 6 cm culture dish were transfected with hSERT cDNA in pcDNA3.1 by lipofectamine 2000. Transfected cells were incubated for 12 h at 37 °C with 5% CO2 and then transferred into 96-well plates. After being grown for an additional 12–16 h, the cells were then assayed for APP^+ uptake or ASP^+ binding.
Measurement of transport or ligand binding activity of SERT was performed by using its fluorescent substrate (APP^+) or ligand (ASP^+), respectively. The cells transiently expressing WT or mutants of hSERT were applied for various treatments. Briefly, the cells were washed twice with 100 μL KRH buffer containing 20 mM HEPES (Neofroxx, Einhausen, Germany), pH 7.4, 120 mM NaCl, 1.3 mM KCl, 2.2 mM CaCl2, 1.2 mM MgSO4, and 0.1% (w/v) glucose. APP^+ uptake was measured by adding 100 μL KRH buffer containing 2 μM APP^+ and incubating for 5 min at 22 °C. Excess APP^+ was then removed by 3× rapid washing with 100 μL KRH buffer each time. The extent of APP^+ accumulated in the cells was determined by fluorescence spectrometry with an Infinite 200 Pro microplate reader (Tecan, Männedorf, Switzerland). […]

Assay [9] concerns the target T7, hSERT T497A (Homo sapiens, UniProt P31645, T497A).
T7 construct: forward and reverse primers were used to amplify a full-length hSERT; expressed in transfected cells; host or cells: HeLa cells, transient, pcDNA3.1
The experiment in a line: ASP^+ binding, hSERT T497A. As to conditions: S2 site mutant, read-out: SYR IC50 for Binding.

Assay [10] addresses T8, hSERT I172F (Homo sapiens, UniProt P31645, I172F).
T8 construct: forward and reverse primers were used to amplify a full-length hSERT; expressed in transfected cells; host or cells: HeLa
Put plainly: ASP^+ binding, hSERT I172F. As to conditions: S1 site mutant, read-out: SYR IC50 for Binding.

The target in assay [11] is T2, hSERT E493N. The experiment in a line: ASP^+ binding, hSERT E493N. To be noted: S2 site mutant, read-out: SYR IC50 for Binding.

T4 sequence (P31645 whole entry S438T): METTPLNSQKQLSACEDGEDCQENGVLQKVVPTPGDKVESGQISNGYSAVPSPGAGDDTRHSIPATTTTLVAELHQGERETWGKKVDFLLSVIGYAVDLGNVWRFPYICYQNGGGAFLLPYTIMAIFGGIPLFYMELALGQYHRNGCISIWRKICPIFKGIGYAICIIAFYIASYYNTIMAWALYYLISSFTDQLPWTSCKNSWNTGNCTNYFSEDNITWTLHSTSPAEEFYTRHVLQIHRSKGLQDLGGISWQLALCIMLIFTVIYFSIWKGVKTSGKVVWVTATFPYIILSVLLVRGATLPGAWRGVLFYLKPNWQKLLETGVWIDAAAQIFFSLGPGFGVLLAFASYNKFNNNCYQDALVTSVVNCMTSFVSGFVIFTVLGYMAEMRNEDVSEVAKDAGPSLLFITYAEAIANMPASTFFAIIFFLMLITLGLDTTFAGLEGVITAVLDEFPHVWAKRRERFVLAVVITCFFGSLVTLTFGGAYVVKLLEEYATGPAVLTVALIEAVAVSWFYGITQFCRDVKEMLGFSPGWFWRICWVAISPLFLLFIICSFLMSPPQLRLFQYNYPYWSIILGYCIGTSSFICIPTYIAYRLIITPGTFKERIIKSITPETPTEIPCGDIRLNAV
T2 sequence (P31645 whole entry E493N): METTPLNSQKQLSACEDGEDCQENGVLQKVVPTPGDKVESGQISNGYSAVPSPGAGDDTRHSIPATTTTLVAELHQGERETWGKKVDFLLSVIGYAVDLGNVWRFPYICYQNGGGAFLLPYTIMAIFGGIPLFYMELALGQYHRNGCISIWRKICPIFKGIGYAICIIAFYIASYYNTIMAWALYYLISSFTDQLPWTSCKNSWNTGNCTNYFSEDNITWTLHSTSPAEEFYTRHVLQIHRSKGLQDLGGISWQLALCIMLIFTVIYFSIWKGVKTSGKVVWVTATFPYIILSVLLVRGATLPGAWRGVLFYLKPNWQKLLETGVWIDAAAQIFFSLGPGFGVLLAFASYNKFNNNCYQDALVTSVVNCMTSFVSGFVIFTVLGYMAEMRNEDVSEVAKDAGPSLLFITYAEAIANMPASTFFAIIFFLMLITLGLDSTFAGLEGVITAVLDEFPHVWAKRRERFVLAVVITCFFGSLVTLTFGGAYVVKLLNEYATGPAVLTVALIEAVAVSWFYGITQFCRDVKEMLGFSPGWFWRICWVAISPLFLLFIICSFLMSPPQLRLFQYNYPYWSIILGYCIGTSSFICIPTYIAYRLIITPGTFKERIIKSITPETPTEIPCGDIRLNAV
T6 sequence (P31645 whole entry S559A): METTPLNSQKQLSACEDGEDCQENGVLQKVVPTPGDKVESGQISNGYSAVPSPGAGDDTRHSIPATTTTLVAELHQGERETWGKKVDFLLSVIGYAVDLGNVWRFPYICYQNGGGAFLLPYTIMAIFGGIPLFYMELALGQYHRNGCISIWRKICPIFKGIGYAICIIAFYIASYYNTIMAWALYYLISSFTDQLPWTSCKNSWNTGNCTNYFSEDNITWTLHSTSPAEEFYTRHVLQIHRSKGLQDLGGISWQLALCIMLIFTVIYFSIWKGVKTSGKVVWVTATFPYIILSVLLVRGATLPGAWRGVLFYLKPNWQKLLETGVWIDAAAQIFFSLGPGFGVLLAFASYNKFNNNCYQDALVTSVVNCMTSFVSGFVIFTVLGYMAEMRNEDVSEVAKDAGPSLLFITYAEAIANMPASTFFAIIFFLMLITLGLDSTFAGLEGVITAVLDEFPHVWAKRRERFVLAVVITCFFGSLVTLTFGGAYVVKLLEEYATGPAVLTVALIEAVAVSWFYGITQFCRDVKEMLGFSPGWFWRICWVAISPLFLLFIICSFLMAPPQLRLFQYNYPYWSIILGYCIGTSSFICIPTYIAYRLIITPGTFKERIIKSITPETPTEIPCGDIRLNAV
T5 sequence (P31645 whole entry E494Q): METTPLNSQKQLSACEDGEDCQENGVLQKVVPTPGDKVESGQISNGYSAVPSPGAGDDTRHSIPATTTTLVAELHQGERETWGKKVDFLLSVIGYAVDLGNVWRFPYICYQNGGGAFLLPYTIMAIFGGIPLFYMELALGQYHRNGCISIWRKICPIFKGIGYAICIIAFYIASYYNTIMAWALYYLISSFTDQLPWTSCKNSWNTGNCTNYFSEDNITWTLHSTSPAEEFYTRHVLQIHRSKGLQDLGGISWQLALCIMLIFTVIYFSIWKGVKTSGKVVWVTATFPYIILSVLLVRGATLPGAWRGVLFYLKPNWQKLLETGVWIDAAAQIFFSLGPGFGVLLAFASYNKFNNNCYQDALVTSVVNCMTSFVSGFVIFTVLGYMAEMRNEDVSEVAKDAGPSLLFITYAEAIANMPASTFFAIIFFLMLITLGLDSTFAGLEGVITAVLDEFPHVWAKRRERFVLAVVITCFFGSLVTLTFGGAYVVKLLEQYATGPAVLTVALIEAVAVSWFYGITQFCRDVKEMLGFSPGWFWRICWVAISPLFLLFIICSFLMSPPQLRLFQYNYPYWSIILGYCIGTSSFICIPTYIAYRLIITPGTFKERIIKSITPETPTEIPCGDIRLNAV
T3 sequence (P31645 whole entry G498T): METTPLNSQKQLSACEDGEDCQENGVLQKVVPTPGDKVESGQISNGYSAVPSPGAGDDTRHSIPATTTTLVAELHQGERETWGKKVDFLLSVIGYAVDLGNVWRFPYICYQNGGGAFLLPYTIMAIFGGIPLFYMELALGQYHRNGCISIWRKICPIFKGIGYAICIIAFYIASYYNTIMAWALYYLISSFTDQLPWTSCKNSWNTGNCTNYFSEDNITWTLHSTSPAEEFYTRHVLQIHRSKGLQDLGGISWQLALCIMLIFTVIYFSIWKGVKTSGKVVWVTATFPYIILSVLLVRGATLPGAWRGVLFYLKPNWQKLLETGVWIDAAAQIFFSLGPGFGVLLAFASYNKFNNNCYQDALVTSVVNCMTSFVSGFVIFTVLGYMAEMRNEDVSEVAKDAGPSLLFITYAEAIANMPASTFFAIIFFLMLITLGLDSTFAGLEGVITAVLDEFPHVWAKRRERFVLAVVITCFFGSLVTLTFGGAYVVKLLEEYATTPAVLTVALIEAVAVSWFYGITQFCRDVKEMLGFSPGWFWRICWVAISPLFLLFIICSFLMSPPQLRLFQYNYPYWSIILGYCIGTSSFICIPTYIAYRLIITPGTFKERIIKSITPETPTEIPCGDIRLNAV
T1 sequence (P31645 whole entry L563A): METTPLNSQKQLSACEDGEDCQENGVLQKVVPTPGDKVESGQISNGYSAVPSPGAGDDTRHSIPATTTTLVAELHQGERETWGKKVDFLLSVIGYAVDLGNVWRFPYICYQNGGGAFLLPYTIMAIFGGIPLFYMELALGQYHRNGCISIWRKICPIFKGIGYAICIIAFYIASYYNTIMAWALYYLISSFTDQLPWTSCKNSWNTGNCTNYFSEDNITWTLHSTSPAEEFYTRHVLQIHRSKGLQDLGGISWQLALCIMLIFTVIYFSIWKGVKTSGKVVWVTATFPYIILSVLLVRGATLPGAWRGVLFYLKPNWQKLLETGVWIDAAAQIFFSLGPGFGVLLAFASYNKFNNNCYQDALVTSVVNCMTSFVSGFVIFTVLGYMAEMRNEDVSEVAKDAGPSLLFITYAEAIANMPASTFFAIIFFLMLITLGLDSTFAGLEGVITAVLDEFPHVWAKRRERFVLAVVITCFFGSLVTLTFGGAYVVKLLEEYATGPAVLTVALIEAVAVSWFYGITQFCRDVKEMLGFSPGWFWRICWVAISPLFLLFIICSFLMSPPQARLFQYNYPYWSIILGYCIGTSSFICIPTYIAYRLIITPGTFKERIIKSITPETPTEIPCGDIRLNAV
T7 sequence (P31645 whole entry T497A): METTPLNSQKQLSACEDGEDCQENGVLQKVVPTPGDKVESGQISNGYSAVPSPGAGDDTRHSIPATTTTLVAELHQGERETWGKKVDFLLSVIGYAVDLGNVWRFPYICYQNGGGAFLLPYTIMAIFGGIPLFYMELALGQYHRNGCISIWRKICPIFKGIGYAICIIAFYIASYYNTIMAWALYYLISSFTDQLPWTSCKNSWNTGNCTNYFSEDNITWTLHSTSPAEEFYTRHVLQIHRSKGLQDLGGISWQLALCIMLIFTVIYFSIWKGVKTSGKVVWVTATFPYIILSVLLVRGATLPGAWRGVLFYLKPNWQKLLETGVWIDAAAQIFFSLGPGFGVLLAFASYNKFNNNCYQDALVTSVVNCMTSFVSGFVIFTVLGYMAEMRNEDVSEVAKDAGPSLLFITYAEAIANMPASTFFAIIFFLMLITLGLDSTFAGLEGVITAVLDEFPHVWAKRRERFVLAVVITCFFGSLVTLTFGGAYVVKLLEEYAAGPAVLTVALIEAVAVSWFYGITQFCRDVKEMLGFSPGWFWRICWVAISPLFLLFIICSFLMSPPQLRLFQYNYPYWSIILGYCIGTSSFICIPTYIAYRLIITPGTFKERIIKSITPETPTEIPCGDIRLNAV
T8 sequence (P31645 whole entry I172F): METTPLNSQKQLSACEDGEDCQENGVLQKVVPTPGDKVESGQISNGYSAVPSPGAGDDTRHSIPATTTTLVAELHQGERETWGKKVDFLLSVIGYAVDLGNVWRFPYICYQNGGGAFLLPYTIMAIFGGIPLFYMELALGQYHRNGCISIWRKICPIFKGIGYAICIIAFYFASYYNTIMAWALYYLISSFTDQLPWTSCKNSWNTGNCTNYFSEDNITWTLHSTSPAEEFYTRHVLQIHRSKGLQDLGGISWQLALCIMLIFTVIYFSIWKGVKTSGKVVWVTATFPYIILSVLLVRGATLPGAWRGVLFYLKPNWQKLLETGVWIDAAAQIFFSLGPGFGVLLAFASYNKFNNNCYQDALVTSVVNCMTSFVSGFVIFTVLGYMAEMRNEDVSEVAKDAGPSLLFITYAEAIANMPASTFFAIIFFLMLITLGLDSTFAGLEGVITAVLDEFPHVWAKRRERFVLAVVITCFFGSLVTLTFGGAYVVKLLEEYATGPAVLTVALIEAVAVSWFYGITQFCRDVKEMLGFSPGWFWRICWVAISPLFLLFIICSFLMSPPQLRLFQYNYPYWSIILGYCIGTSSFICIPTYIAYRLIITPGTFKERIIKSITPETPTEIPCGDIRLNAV

Regarding `COc1cc([C@@H]2OC[C@@H]3[C@H]2CO[C@H]3c2cc(OC)c(O)c(OC)c2)cc(OC)c1O` [SYR, (-)-syringaresinol], the IC50 (in general, the point on the concentration scale where inhibition reaches its midpoint) in [1] amounted to 39 ± 0.92 µM; in assay [3], 9.16 ± 0.34 µM; in assay [4], 91 ± 6.29 µM; in assay [5] it was 2.32 ± 0.02 µM; in [6] it was 9.77 ± 0.78 µM; in [7], 36.8 ± 2.49 µM. Also, the IC50 in [8] came to 0.91 ± 0.02 µM; in assay [9], 43.7 ± 2.6 µM; in assay [10] it was 1.51 ± 0.04 µM; in assay [11], 13.5 ± 1.3 µM. The “CUMS-induced decrease in expression of c-Fos in mPFC” value in [2] is given as “significantly elevated”.
